Test system: HT-1080 (ATCC, CCL-121) cells
Assay: HT-1080 cell viability assay with ferroptosis inducer RSL3 (Cell Titer-Glo)
Assay type: cell-based
Conditions: Homo sapiens; HT-1080 cells treated with RSL3; 3-fold, 10-point dilution, 1.1 μM highest concentration; Table 2; read-out: EC50 (nM), ferroptosis inhibitory activity
Summary of the method: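 HT-1080 cells (6000 per well) were cultured overnight at 37 °C, then co-treated with RSL3 and compound in a 3-fold, 10-point series topping at 1.1 μM. Viability was read by CellTiter-Glo luminescence and normalized to untreated controls. EC50 came from a sigmoidal non-linear regression fit.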

| Compound | EC50 [nM] |
| --- | --- |
| Cc1ccc(Cl)c(Nc2ccc3c(c2)CN(C)C3=O)c1 [Compound 230, 5-((2-chloro-5-methylphenyl)amino)-2-methylisoindolin-1-one] | 0.1 to 100 |
| COc1ccc(C)cc1Nc1ccc2c(c1)CN(C)C2=O [Compound 231, 5-((2-methoxy-5-methylphenyl)amino)-2-methylisoindolin-1-one] | 0.1 to 100 |
| CN1Cc2cc(Nc3ccc(Oc4ccc(Cl)cc4)cc3)ccc2C1=O [Compound 232, 5-((4-(4-chlorophenoxy)phenyl)amino)-2-methylisoindolin-1-one] | 0.1 to 100 |
| CN1Cc2cc(Nc3ccc4nccn4c3)ccc2C1=O [Compound 233, 5-(imidazo[1,2-a]pyridin-6-ylamino)-2-methylisoindolin-1-one] | 100 to 1000 |
| CN1Cc2cc(Nc3cccc(N(C)C)c3)ccc2C1=O [Compound 234, 5-((3-(dimethylamino)phenyl)amino)-2-methylisoindolin-1-one] | 0.1 to 100 |
| CN1Cc2cc(Nc3ccc(N(C)C)nc3)ccc2C1=O [Compound 235, 5-((6-(dimethylamino)pyridin-3-yl)amino)-2-methylisoindolin-1-one] | 0.1 to 100 |
| Cc1cc(C)c(Nc2ccc3c(c2)CN(C)C3=O)cn1 [Compound 236, 5-((4,6-dimethylpyridin-3-yl)amino)-2-methylisoindolin-1-one] | 0.1 to 100 |
| COCCOc1ccc(Nc2ccc3c(c2)CN(C)C3=O)cc1 [Compound 237, 5-((4-(2-methoxyethoxy)phenyl)amino)-2-methylisoindolin-1-one] | 0.1 to 100 |
| CN1Cc2cc(Nc3ccc(CN4CCCC4)cc3)ccc2C1=O [Compound 238, 2-methyl-5-((4-(pyrrolidin-1-ylmethyl)phenyl)amino)isoindolin-1-one] | 1000 to 10000 |
| CC1CCCCN1c1ccc(Nc2ccc3c(c2)CN(C)C3=O)cc1 (centres unmarked) [Compound 240, 2-methyl-5-((4-(2-methylpiperidin-1-yl)phenyl)amino)isoindolin-1-one] | 0.1 to 100 |
| CC1CCCN(c2ccc(Nc3ccc4c(c3)CN(C)C4=O)cc2)C1 (centres unmarked) [Compound 241, 2-methyl-5-((4-(3-methylpiperidin-1-yl)phenyl)amino)isoindolin-1-one] | 0.1 to 100 |
| CN1Cc2cc(Nc3ccc(N4CCCC(C(F)(F)F)C4)cc3)ccc2C1=O (centres unmarked) [Compound 242, 2-methyl-5-((4-(3-(trifluoromethyl)piperidin-1-yl)phenyl)amino) isoindolin-1-one] | 0.1 to 100 |
| COc1cc(Nc2ccc3c(c2)CN(C)C3=O)ccc1N1CCC(C(F)(F)F)CC1 [Compound 243, 5-((3-methoxy-4-(4-(trifluoromethyl)piperidin-1-yl)phenyl)amino)-2-methylisoindolin-1-one] | 0.1 to 100 |
| CN1Cc2cc(Nc3ccc(N4CC5(CCC5)C4)cc3)ccc2C1=O [Compound 244, 5-((4-(2-azaspiro[3.3]heptan-2-yl)phenyl)amino)-2-methylisoindolin-1-one] | 0.1 to 100 |
| CN1Cc2cc(Nc3ccc(N4C[C@H]5CC[C@@H]4C5)cc3)ccc2C1=O [Compound 245, 5-((4-((1R,4S)-2-azabicyclo[2.2.1]heptan-2-yl)phenyl)amino)-2-methylisoindolin-1-one] | 0.1 to 100 |
| CN1Cc2cc(Nc3ccc(N4CC5(CCCC5)C4)cc3)ccc2C1=O [Compound 246, 5-((4-(2-azaspiro[3.4]octan-2-yl)phenyl)amino)-2-methylisoindolin-1-one] | 0.1 to 100 |
| CN1CCC(N2Cc3cc(Nc4ccc(N5CCC(C)(C)CC5)cc4)ccc3C2=O)CC1 [Compound 247, 5-((4-(4,4-dimethylpiperidin-1-yl)phenyl)amino)-2-(1-methylpiperidin-4-yl)isoindolin-1-one] | 0.1 to 100 |
| Cn1cncc1CN1Cc2cc(Nc3ccc(N4CCC(C(F)(F)F)CC4)cc3)ccc2C1=O [Compound 248, 2-((1-methyl-1H-imidazol-5-yl)methyl)-5-((4-(4-(trifluoromethyl)piperidin-1-yl)phenyl)amino)isoindolin-1-one] | 0.1 to 100 |
| CC1CCN(c2ccc(Nc3ccc4c(c3)CN(C3CCN(C)CC3)C4=O)cc2)CC1 [Compound 249, 5-((4-(4-methylpiperidin-1-yl)phenyl)amino)-2-(1-methylpiperidin-4-yl) isoindolin-1-one] | 0.1 to 100 |
| CC1CCN(c2ccc(Nc3ccc4c(=O)n(C)n(C)c4c3)cc2)CC1 [Compound 250, 1,2-dimethyl-6-((4-(4-methylpiperidin-1-yl)phenyl)amino)-1,2-dihydro-3H-indazol-3-one] | 0.1 to 100 |
| CC1CCN(c2ccc(Nc3ccc4c(=O)n(C)[nH]c4c3)cc2)CC1 [Compound 251, 2-methyl-6-((4-(4-methylpiperidin-1-yl)phenyl)amino)-1,2-dihydro-3H-ind azol-3-one] | 0.1 to 100 |

| Compound | EC50 [nM] |
| --- | --- |
| CCn1[nH]c2cc(Nc3ccc(N4CCC(C(F)(F)F)CC4)cc3)ccc2c1=O [Compound 252, 2-ethyl-6-((4-(4-(trifluoromethyl)piperidin-1-yl)phenyl)amino)-1,2-dihydro-3H-indazol-3-one] | 0.1 to 100 |
| CC1CCN(c2ccc(Nc3cc(Cl)c4c(c3)CN(C(=O)C(F)(F)F)C4)cc2)CC1 [Compound 253, 1-(4-chloro-6-((4-(4-methylpiperidin-1-yl)phenyl)amino)isoindolin-2-yl)-2,2,2-trifluoroethan-1-one] | 0.1 to 100 |
| CC1CCC(C)N1c1ccc(Nc2ccc3c(c2)n(C)c(=O)n3C)cc1 (centres unmarked) [Compound 254, 5-((4-(2,5-dimethylpyrrolidin-1-yl)phenyl)amino)-1,3-dimethyl-1,3-dihydro-2H-benzo[d]imidazol-2-one] | 0.1 to 100 |
| CC1CCN(c2ccc(Nc3cc4c(c([N+](=O)[O-])c3)CN(C(=O)C(F)(F)F)C4)cc2)CC1 [Compound 255, 2,2,2-trifluoro-1-(6-((4-(4-methylpiperidin-1-yl)phenyl)amino)-4-nitroisoindolin-2-yl)ethan-1-one] | 0.1 to 100 |
| Cn1c(=O)oc2cc(Nc3ccc(N4CCC(C(F)(F)F)CC4)cc3)ccc21 [Compound 256] | 0.1 to 100 |
| Cn1[nH]c2cc(Nc3ccc(N4CCCCC4)cc3)ccc2c1=O [Compound 257, 2-methyl-6-((4-(piperidin-1-yl)phenyl)amino)-1,2-dihydro-3H-indazol-3-one] | 0.1 to 100 |
| O=C1c2ccc(Nc3ccc(N4CCC(C(F)(F)F)CC4)cc3)cc2CN1C1CCOCC1 [Compound 258, 2-(tetrahydro-2H-pyran-4-yl)-5-((4-(4-(trifluoromethyl)piperidin-1-yl)phenyl)amino)isoindolin-1-one] | 0.1 to 100 |
| CC1CCC(C)N1c1ccc(Nc2ccc3c(=O)n(C)[nH]c3c2)cc1 (centres unmarked) [Compound 259, 6-((4-(2,5-dimethylpyrrolidin-1-yl)phenyl)amino)-2-methyl-1,2-dihydro-3H-indazol-3-one] | 0.1 to 100 |
| CCCCCN(CC)c1ccc(Nc2ccc3c(c2)n(C)c(=O)n3C)cc1 [Compound 260, 5-((4-(ethyl(pentyl)amino)phenyl)amino)-1,3-dimethyl-1,3-dihydro-2H-benzo[d]imidazol-2-one] | 0.1 to 100 |
| Cn1c(=O)n(C)c2cc(Nc3ccc(C(C)(C)C)cc3)ccc21 [Compound 261, 5-((4-(tert-butyl)phenyl)amino)-1,3-dimethyl-1,3-dihydro-2H-benzo[d]imidazol-2-one] | 0.1 to 100 |
| CCN(CCCOC)c1ccc(Nc2ccc3c(c2)n(C)c(=O)n3C)cc1 [Compound 262, 5-((4-(ethyl(3-methoxypropyl)amino)phenyl)amino)-1,3-dimethyl-1,3-dihydro-2H-benzo[d]imidazol-2-one] | 0.1 to 100 |
| Cc1c(N2CCC(C)CC2)ccc(Nc2ccc3c(c2)n(C)c(=O)n3C)c1F [Compound 263, 5-((2-fluoro-3-methyl-4-(4-methylpiperidin-1-yl)phenyl)amino)-1,3-dimethyl-1,3-dihydro-2H-benzo[d]imidazol-2-one] | 0.1 to 100 |
| Cc1cc(N2CCC(C)CC2)c(F)cc1Nc1ccc2c(c1)n(C)c(=O)n2C [Compound 264, 5-((5-fluoro-2-methyl-4-(4-methylpiperidin-1-yl)phenyl)amino)-1,3-dimethyl-1,3-dihydro-2H-benzo[d]imidazol-2-one] | 0.1 to 100 |
| Cc1cc(N2CCC(C)CC2)c(Cl)cc1Nc1ccc2c(c1)n(C)c(=O)n2C [Compound 265, 5-((5-chloro-2-methyl-4-(4-methylpiperidin-1-yl)phenyl)amino)-1,3-dimethyl-1,3-dihydro-2H-benzo[d]imidazol-2-one] | 0.1 to 100 |
| Cn1ccc2cc(Nc3ccc4c(c3)n(C)c(=O)n4C)ccc21 [Compound 266, 1,3-dimethyl-5-((1-methyl-1H-indol-5-yl)amino)-1,3-dihydro-2H-benzo[d]imidazol-2-one] | 0.1 to 100 |
| CC1CCN(c2ccc(Nc3cc(Cl)c4c(c3)CN(C)C4)cc2)CC1 [Compound 267, 7-chloro-2-methyl-N-(4-(4-methylpiperidin-1-yl)phenyl)isoindolin-5-amine] | 0.1 to 100 |
| CCN(CC)c1ccc(Nc2ccc3c(c2)n(C)c(=O)n3C)cc1 [Compound 268, 5-((4-(diethylamino)phenyl)amino)-1,3-dimethyl-1,3-dihydro-2H-benzo[d]imidazol-2-one] | 0.1 to 100 |
| COc1cc(Nc2ccc3c(c2)n(C)c(=O)n3C)ccc1N1CCC(C(F)(F)F)CC1 [Compound 269, 5-((3-methoxy-4-(4-(trifluoromethyl)piperidin-1-yl)phenyl)amino)-1,3-dimethyl-1,3-dihydro-2H-benzo[d]imidazol-2-one] | 0.1 to 100 |
| CC1CCN(c2ccc(Nc3ccc4ncn(C)c4c3)cc2)CC1 [Compound 270, 1-methyl-N-(4-(4-methylpiperidin-1-yl)phenyl)-1H-benzo[d]imidazol-6-amine] | 0.1 to 100 |
| Cn1c(=O)n(C)c2cc(Nc3ccc(N4CCCC4)cc3)ccc21 [Compound 271, 1,3-dimethyl-5-((4-(pyrrolidin-1-yl)phenyl)amino)-1,3-dihydro-2H-benzo[d]imidazol-2-one] | 0.1 to 100 |

Source: patent publication US20240327393A1 (SIRONAX LTD., priority 2021, published 2024)
